# Measurements published in patent publication US10576144B2, “Amino acid and peptide conjugates and conjugation process” (AUCKLAND UNISERVICES LIMITED, priority 2014, dated 2020).
# Residues, ends and D or L forms follow the SMILES beside them. *: point of attachment. Ethyl(2-palmitoyloxy) = CCCCCCCCCCCCCCCC(=O)OCC*; Palmitoyl = CCCCCCCCCCCCCCCC(=O)*
# Columns and labels:
# CD4+ T cell clone 1D6 = assay: CD4+ T cell clone activation assay, NY-ESO-1 118-143 constructs, autologous LCL as APC; format: cell-based, human; settings: LCL pulsed with construct; 147 tested +/−P3C; 116 and 115 titratable (FIG. 13)
# Procedure: Epstein-Barr Virus (“EBV”)-producing B95-8 MM cells were grown in RPMI 1640 supplemented with Glutamax, Penicillin/Streptomycin and 10% v/v fetal bovine serum (“RF10”, all reagents from Invitrogen) in T75 flasks (BD Biosciences). EBV-containing medium was collected and centrifuged to pellet non-adherent cells, and the EBV-containing supernatant then filter-sterilised (0.22 μm). 10×10^6 donor Peripheral Blood Mononuclear Cells (“PBMC”) were suspended in 1.5 ml RF10 in aT25 flask (BD Biosciences). […] Flasks were monitored for outgrowth of B cell LCL, typically over 4-6 weeks, with transfer to a T75 flask (BD Biosciences) when required. […]
# Data acquisition was performed using a BD FACSAria II with FACSDiva software, and data analysis was performed using FlowJo software (Treestar). Data were presented as the median fluorescence intensity (MFI)+SD of CD25 and CD134 expression on live clonal cells. […]
# CD8+ T cell clone 1C11 = assay: CD8+ T cell clone activation assay, NY-ESO-1 118-143 constructs, autologous LCL as APC; format: cell-based, human
# Procedure: Human CD4+ and CD8+ T cell clones were maintained at a concentration of 1-3×10^6/ml in RPMI 1640 supplemented with Glutamax, Penicillin/Streptomycin and 5% v/v human serum (“RS5”, all reagents from Life Technologie). Media was refreshed 50% v/v twice weekly. RS5 for CD4+ T cell clones was supplemented with IL-7 and IL-21, and RS5 for CD8+ T cell clones was supplemented with IL-7+IL-15 (all cytokines from PeproTech, used at a final concentration of 5 ng/ml).
# Epstein-Barr Virus (“EBV”)-producing B95-8 MM cells were grown in RPMI 1640 supplemented with Glutamax, Penicillin/Streptomycin and 10% v/v fetal bovine serum (“RF10”, all reagents from Invitrogen) in T75 flasks (BD Biosciences). EBV-containing medium was collected and centrifuged to pellet non-adherent cells, and the EBV-containing supernatant then filter-sterilised (0.22 μm). 10×10^6 donor Peripheral Blood Mononuclear Cells (“PBMC”) were suspended in 1.5 ml RF10 in aT25 flask (BD Biosciences). 2.5 ml B95-8 cell culture supernatant was added and cells incubated for 2 hours. 1 ml fresh RF10 containing 5% v/v Phytohemaglutanin (“PHA”, Gibco) was then added (1% v/v final concentration). Flasks were monitored for outgrowth of B cell LCL, typically over 4-6 weeks, with transfer to a T75 flask (BD Biosciences) when required. LCL lines were cryopreserved and working stocks maintained in RF10 at 0.5-1.5×10^6/ml.
# Donor LCL or MoDC (also referred to herein as antigen presenting cells or “APC”) were incubated for 16 h in RF10+ peptide/construct at desired concentration. In samples where Pam3Cys (“P3C”) and peptide moieties were both present but unconjugated, LCL were pre-treated with P3C for 30 minutes, and media then refreshed with RF10 containing both P3C and peptide. Untreated APC were incubated in RF10 only. APC/construct incubation was performed in 96 well plates (U-bottom, BD Biosciences) or in 48wp (flat bottom, BD Biosciences) depending of the nature of the assay and the numbers of APC required per treatment. Following incubation, APC were washed with RPMI 1640 4 times, to remove unbound construct/P3C. […]
# human monocytes = assay: Activation of human monocytes in whole blood (CD80 up-regulation, flow cytometry); format: cell-based
# Procedure: 100 μl of heparinised whole blood (WB) was incubated with 100 nM, 1 μM and 10 μM of each compound, in duplicate, and incubated overnight at 37° C. in a 5% CO2 humidified incubator. […] EMC Microcollections) was used as a positive control. To detect activation of monocytes, WB samples were stained with anti-CD14-FITC, anti-HLA-DR-Alexa700, anti-CD80-PE-Cy7, anti-CD40-PE, anti-CD86-APC, anti-CD16-APC-Cy7 (all from Biolegend) for 20 mins at RT, protected from light. Following incubation, 2 ml of BD FACS lyse (BD Biosciences) was added, incubated for 15 mins at RT, then washed twice with ice cold wash buffer (PBS, 1% Human Serum). Data acquisition was performed on a BD FACS Aria II (Becton Dickinson) and analysed using FlowJo software version 7.6.5 (TreeStar). CD80 receptor expression on monocytes was detected by gating on CD14+ HLADR+ cells.
compound,measurement,setting,value
147 (VPGVLLKEFTVSGNILTIRLTAADHR; C-terminal acid) [compound 147],response of clone 1D6,CD4+ T cell clone 1D6,does not respond
same,T cell activation,CD8+ T cell clone 1C11; 100 nM,No or negligible T cell activation
same,T cell activation,"CD8+ T cell clone 1C11; 1 μM, with exogenous P3C",75%
same,T cell activation,"CD8+ T cell clone 1C11; 1 μM, without exogenous P3C",60%
CCCCCCCCCCCCCCCC(=O)OCCSC[C@H](NC(C)=O)C(=O)N[C@@H](CO)C(=O)N[C@@H](CCCCN)C(=O)N[C@@H](CCCCN)C(=O)N[C@@H](CCCCN)C(=O)N[C@@H](CCCCN)C(N)=O [compound 22] (Ac-C(Ethyl(2-palmitoyloxy))SKKKK-NH2),potency of CD80 up-regulation compared to Pam3CSK4,"human monocytes; 10 μM dose, in most donors",equivalent potency to Pam3CSK4
same,up-regulation of expression of CD80 on monocytes,"human monocytes; all doses tested (100 nM, 1 μM, 10 μM), whole blood of five donors, overnight",strongly upregulated expression of CD80
CCCCCCCCCCCCCCCC(=O)SC[C@H](N)C(=O)N[C@@H](CO)C(=O)N[C@@H](CCCCN)C(=O)N[C@@H](CCCCN)C(=O)N[C@@H](CCCCN)C(=O)N[C@@H](CCCCN)C(N)=O [compound 20] (H-C(Palmitoyl)SKKKK-NH2),potency of CD80 up-regulation compared to 22 and 26,human monocytes; in three donors,lower potency than 22 and 26
